Reference: patent publication US5578570A, “Method of treating septic shock using thymosin β4” (The George Washington University Medical Center, priority 1994, dated 1996)

Experiments:
Type in all cases: in vivo
[1] = tested on: malonyldialdehyde; experiment: Lipid peroxidation (blood malonyldialdehyde) in a septic shock model in rat; conditions: for Blood Levels of malonyldialdehyde: rats with septic shock + Tβ4 1 mg/rat × 3
Excerpt: (§1) Using a septic shock model in rats (Sprague-Dawley, male, 200-225 g each), the effect of thymosin β4 alone and together with antibiotics was studied. Peritonitis was induced in rats in the following way. A 1-cm incision was made into the peritoneal which exposed the cecum. A tight ligature was placed around the cecum with 4-0 suture distal to the insertion of the small bowel, forming an area of devitalized tissue while maintaining bowel continuity. A puncture wound was made with 16-gauge needle into the anti-mesenteric surface of the cecum and a small amount of fecal contents was expressed through the wound. The cecum was replaced into the peritoneal cavity, and the anterior peritoneal wall and skin were closed with surgical staples. Each animal was given a bolus of normal saline (15 ml/kg) for hydration and allowed to recover overnight.
(§2) The results presented in Tables XV to XVIII below show effects of Tβ4 respectively on rat cytokine levels, blood malonyldialdehyde levels, glutathione levels and arachidonic acid metabolic levels.

[2] = tested on: Rats with Septic Shock; experiment: Survival of Sprague-Dawley rats in septic shock model (peritonitis); conditions: for Survival of rats (number alive): Table XIV, septic shock + antibiotic (gentamicin sulfate, 1 mg/rat) + thymosin β4 1 mg/rat × 3 (0, 2, 4 hr post induction of peritonitis), 10 rats at 0 hr; for Number of Rats Alive: septic shock + Tβ4 1 mg/rat × 3, 10 rats at 0 h
Excerpt: as §1

[3] = tested on: TNF-α; experiment: Serum TNF-α levels in mice treated with lethal doses of endotoxin; conditions: for TNF-α (serum level): Table XIII, endotoxin 60 mg/kg + Tβ4 100 μg administered immediately after endotoxin
Excerpt: The results presented in Tables III-V below show effects of Tβ4 respectively on mice cerebellar cGMP levels, blood serum TNF-α levels, and blood serum TNF-α and IL-1α levels.
Using the same methods and materials as in examples 1-3, the effect which Tβ4 has on blood levels of IL-1α, TNF-α, PAG, Txβ2 and 6-keto-PGF1 α, which are pathological mediators of endotoxin induced lethality, was studied.

[4] = tested on: 6-keto-PGF1; experiment: 6-keto-PGF1 levels in a septic shock model in rat; conditions: rats with septic shock + Tβ4 1 mg/rat × 3
Excerpt: as §1, §2

[5] = tested on: endotoxic mice; experiment: Survival of Swiss Webster mice following lethal endotoxin dose and Tβ4; conditions: for Number of Mice Alive: Table II, 8 mice at 0 hr.
Protocol: Swiss-Webster mice 4-6 weeks of age (20-25 g) were housed 6 per cage. The mice were divided into 2 groups: endotoxic mice (endotoxin 60 mg/kg i.p. in acute treatment) and endotoxic mice treated with Tβ4, 5 minutes and 2, 4, 6, 8, 10, 12, 14, 16, 18, 20, 22, 24 hours post administration of the endotoxin. Survival was recorded 2 times a day for 7 days.
Swiss-Webster mice 4-6 weeks of age (20-25 g) were divided into groups as follows.
1. Mice treated with a lethal dose of endotoxin (60 mg/kg).
2. […]
3. […]
4. […]

## Thymosin β4 [Tβ4]
[1]; during sepsis, with Tβ4 administration
  peroxidation of lipids in blood (malonyldialdehyde), in words: returned to normal or about normal
[1]; first value column
  Blood Levels of malonyldialdehyde: 19.6 ± 1.7 nNol MDA
[1]; second value column
  Blood Levels of malonyldialdehyde: 16.8 ± 1.5 nNol MDA
[2]; 24 hr
  Survival of rats (number alive): 4
[2]; 48 hr
  Survival of rats (number alive): 3
[2]; 72 hr
  Survival of rats (number alive): 3
[2]; Table XIX, 24 h
  Number of Rats Alive: 3
[2]; Table XIX, 48 h
  Number of Rats Alive: 3
[2]; Table XIX, 72 h
  Number of Rats Alive: 3
[2]; Table XX, 24 h
  Number of Rats Alive: 4
[2]; Table XX, 48 h
  Number of Rats Alive: 3
[2]; Table XX, 72 h
  Number of Rats Alive: 3
[3]; Table IV, endotoxin 60 mg/kg + Tβ4 100 μg, 1 hr
  Serum TNF-α: 823 ± 79 pg/mL
[3]; Table IV, endotoxin 60 mg/kg + Tβ4 100 μg, 3 hr
  Serum TNF-α: 535 ± 47 pg/mL
[3]; Table IV, endotoxin 60 mg/kg + Tβ4 100 μg, 5 hr
  Serum TNF-α: 480 ± 45 pg/mL
[3]; Table V, pretreatment (SOD 3.3 × 10^4 μ/kg, 30 minutes before endotoxin; Tβ4 100 μg/mice), blood collected 1 hr after endotoxin
  Serum TNF-α: 321 ± 26.2 pg/mL
[3]; 1 hr
  TNF-α (serum level): 807 pg/mL
[3]; 3 hr
  TNF-α (serum level): 591 pg/mL
[3]; 5 hr
  TNF-α (serum level): 496 pg/mL
[4]
  6-keto-PGF1: 829 ± 59 pg/mL
[5]; 10 μg Tβ4
  protective activity on endotoxin lethality (in words): sometimes shown positive activity
[5]; Table I, endotoxin 60 mg/kg + Tβ4 100 μg 1x, 24 hrs, 7 mice at 0 hrs
  Survival (No. mice alive): 4
[5]; Table I, endotoxin 60 mg/kg + Tβ4 100 μg 1x, 48 hrs, 7 mice at 0 hrs
  Survival (No. mice alive): 3
[5]; Table I, endotoxin 60 mg/kg + Tβ4 100 μg 1x, 72 hrs, 7 mice at 0 hrs
  Survival (No. mice alive): 3
[5]; Table I, endotoxin 60 mg/kg + Tβ4 100 μg 2x, 24 hrs, 7 mice at 0 hrs
  Survival (No. mice alive): 4
[5]; Table I, endotoxin 60 mg/kg + Tβ4 100 μg 2x, 48 hrs, 7 mice at 0 hrs
  Survival (No. mice alive): 4
[5]; Table I, endotoxin 60 mg/kg + Tβ4 100 μg 2x, 72 hrs, 7 mice at 0 hrs
  Survival (No. mice alive): 4
[5]; Table I, endotoxin 60 mg/kg + Tβ4 100 μg 3x, 24 hrs, 7 mice at 0 hrs
  Survival (No. mice alive): 7
[5]; Table I, endotoxin 60 mg/kg + Tβ4 100 μg 3x, 48 hrs, 7 mice at 0 hrs
  Survival (No. mice alive): 7
[5]; Table I, endotoxin 60 mg/kg + Tβ4 100 μg 3x, 72 hrs, 7 mice at 0 hrs
  Survival (No. mice alive): 7
[5]; endotoxin 60 mg/kg + Tβ4 100 μg 3x, 24 hr.
  Number of Mice Alive: 8
[5]; endotoxin 60 mg/kg + Tβ4 100 μg 3x, 48 hr.
  Number of Mice Alive: 8
[5]; endotoxin 60 mg/kg + Tβ4 100 μg 3x, 72 hr.
  Number of Mice Alive: 8
[5]; endotoxin 60 mg/kg + Tβ4 100 μg 3x, 7 day
  Number of Mice Alive: 8
[5]; endotoxin 60 mg/kg + Tβ4 100 μg 3x, 14 day
  Number of Mice Alive: 8
[5]; Table VI, endotoxin 60 mg/kg + Tβ4 10 μg 3x, immediately following, 2 and 4 hrs after endotoxin, 24 hrs, 8 mice at 0 hrs
  Survival (No. mice alive): 8
[5]; Table VI, endotoxin 60 mg/kg + Tβ4 10 μg 3x, immediately following, 2 and 4 hrs after endotoxin, 48 hrs, 8 mice at 0 hrs
  Survival (No. mice alive): 6
[5]; Table VI, endotoxin 60 mg/kg + Tβ4 10 μg 3x, immediately following, 2 and 4 hrs after endotoxin, 72 hrs, 8 mice at 0 hrs
  Survival (No. mice alive): 6
[5]; Table VI, endotoxin 60 mg/kg + Tβ4 10 μg 3x, immediately following, 2 and 4 hrs after endotoxin, 96 hrs, 8 mice at 0 hrs
  Survival (No. mice alive): 6
[5]; Table VI, endotoxin 60 mg/kg + Tβ4 10 μg 3x, immediately following, 2 and 4 hrs after endotoxin, 120 hrs, 8 mice at 0 hrs
  Survival (No. mice alive): 6
[5]; Table VI, endotoxin 60 mg/kg + Tβ4 100 μg 3x, 2, 4 and 6 hrs after endotoxin, 24 hrs, 8 mice at 0 hrs
  Survival (No. mice alive): 7
[5]; Table VI, endotoxin 60 mg/kg + Tβ4 100 μg 3x, 2, 4 and 6 hrs after endotoxin, 48 hrs, 8 mice at 0 hrs
  Survival (No. mice alive): 4
[5]; Table VI, endotoxin 60 mg/kg + Tβ4 100 μg 3x, 2, 4 and 6 hrs after endotoxin, 72 hrs, 8 mice at 0 hrs
  Survival (No. mice alive): 4
[5]; Table VI, endotoxin 60 mg/kg + Tβ4 100 μg 3x, 2, 4 and 6 hrs after endotoxin, 96 hrs, 8 mice at 0 hrs
  Survival (No. mice alive): 4
[5]; Table VI, endotoxin 60 mg/kg + Tβ4 100 μg 3x, 2, 4 and 6 hrs after endotoxin, 120 hrs, 8 mice at 0 hrs
  Survival (No. mice alive): 4
[5]; Table VI, endotoxin 60 mg/kg + Tβ4 100 μg 3x, immediately following, 2 and 4 hrs after endotoxin, 24 hrs, 8 mice at 0 hrs
  Survival (No. mice alive): 8
[5]; Table VI, endotoxin 60 mg/kg + Tβ4 100 μg 3x, immediately following, 2 and 4 hrs after endotoxin, 48 hrs, 8 mice at 0 hrs
  Survival (No. mice alive): 8
